Measurements taken from US20260125683A1, “TREATMENT OF CANCERS HAVING A DRUG-RESISTANT MESENCHYMAL CELL STATE” (DANA-FARBER CANCER INSTITUTE, INC., priority 2023, published 2026).
Entries after “also recorded” stand apart in the source; their conditions may differ. Counter-ions that a name gives are not always drawn. Like-named read-outs stand apart in the source and are kept apart here.

How the values were obtained:
[1] = tested on: various cancer cell lines; conditions: read-out: IC50, apoptosis induction; cited from earlier work
normal human fibroblasts = conditions: read-out: IC50, apoptosis induction; cited from earlier work
anandamide uptake = conditions: cited from earlier work
anandamide levels = conditions: rat cerebellum; cited from earlier work
variety of cell types = conditions: cited from earlier work
[2] = cited from earlier work
MCT1 = MCT1 (Homo sapiens, UniProt P53985); conditions: cited from earlier work
Sequence of MCT1 (P53985 whole entry): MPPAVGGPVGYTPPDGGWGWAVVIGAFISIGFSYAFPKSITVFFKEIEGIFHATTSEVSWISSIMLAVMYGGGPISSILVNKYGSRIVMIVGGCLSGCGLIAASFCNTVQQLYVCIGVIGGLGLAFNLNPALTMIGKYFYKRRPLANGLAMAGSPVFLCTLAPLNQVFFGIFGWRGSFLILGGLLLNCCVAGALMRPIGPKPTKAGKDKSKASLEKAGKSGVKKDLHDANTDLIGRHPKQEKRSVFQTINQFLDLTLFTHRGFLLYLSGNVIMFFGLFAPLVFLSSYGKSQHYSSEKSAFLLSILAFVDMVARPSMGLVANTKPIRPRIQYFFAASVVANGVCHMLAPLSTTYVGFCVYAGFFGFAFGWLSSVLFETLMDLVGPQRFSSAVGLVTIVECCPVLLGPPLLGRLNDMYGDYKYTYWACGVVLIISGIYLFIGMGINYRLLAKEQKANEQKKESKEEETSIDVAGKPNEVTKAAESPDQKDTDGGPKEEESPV

MCT2 = MCT2 (Homo sapiens, UniProt O60669); conditions: cited from earlier work
Sequence of MCT2 (O60669 whole entry, species assumed): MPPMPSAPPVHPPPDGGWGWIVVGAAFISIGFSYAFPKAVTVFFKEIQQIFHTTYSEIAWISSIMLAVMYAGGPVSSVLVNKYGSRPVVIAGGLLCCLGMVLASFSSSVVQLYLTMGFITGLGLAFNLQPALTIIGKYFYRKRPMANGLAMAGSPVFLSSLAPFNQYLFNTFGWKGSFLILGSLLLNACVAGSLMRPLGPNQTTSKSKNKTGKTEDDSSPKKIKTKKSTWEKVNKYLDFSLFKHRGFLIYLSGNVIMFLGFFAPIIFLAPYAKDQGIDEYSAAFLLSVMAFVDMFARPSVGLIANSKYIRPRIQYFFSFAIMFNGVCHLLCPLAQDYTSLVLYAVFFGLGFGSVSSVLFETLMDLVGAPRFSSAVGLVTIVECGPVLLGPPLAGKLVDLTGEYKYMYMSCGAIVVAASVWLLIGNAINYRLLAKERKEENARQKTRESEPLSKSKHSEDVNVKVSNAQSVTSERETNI

[3] = biological target: sodium/D-glucose cotransporter; conditions: cited from earlier work
neutrophil chemotaxis = conditions: in vitro; read-out: IC50, neutrophil chemotaxis in response to IL-8; cited from earlier work
neutrophil margination = conditions: in vivo; read-out: IC50, neutrophil margination induced by IL-8; cited from earlier work
[4] = biological target: proteinase-activated receptor 1 (PAR1) (Homo sapiens, UniProt P25116); conditions: read-out: IC50, blocking binding of haTRAP; cited from earlier work
Sequence of proteinase-activated receptor 1 (PAR1) (P25116 22-425, species assumed): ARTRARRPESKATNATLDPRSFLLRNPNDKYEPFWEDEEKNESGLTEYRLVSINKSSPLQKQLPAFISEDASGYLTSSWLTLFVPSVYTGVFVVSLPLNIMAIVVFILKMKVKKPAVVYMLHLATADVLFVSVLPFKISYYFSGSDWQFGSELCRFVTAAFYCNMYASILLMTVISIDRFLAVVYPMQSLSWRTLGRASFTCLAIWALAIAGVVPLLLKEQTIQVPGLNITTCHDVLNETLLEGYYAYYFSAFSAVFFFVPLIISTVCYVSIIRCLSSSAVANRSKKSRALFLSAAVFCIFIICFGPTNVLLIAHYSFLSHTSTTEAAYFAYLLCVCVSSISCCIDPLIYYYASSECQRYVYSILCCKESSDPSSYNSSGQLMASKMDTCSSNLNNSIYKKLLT

platelet aggregation = conditions: cited from earlier work
PAR2 = PAR2 (Homo sapiens, UniProt P55085); conditions: cited from earlier work
Sequence of PAR2 (P55085 26-397): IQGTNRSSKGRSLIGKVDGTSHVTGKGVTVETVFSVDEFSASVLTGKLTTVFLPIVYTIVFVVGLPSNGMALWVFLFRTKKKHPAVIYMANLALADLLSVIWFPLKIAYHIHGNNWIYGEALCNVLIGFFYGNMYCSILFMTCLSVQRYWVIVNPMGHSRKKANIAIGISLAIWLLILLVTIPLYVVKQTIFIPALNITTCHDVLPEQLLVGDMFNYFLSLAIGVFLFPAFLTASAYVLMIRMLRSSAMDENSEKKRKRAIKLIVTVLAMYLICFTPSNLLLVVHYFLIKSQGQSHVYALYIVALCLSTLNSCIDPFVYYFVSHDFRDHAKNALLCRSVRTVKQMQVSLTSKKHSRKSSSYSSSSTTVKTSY

PAR4 = PAR4 (Homo sapiens, UniProt Q96RI0); conditions: cited from earlier work
Sequence of PAR4 (Q96RI0 18-385): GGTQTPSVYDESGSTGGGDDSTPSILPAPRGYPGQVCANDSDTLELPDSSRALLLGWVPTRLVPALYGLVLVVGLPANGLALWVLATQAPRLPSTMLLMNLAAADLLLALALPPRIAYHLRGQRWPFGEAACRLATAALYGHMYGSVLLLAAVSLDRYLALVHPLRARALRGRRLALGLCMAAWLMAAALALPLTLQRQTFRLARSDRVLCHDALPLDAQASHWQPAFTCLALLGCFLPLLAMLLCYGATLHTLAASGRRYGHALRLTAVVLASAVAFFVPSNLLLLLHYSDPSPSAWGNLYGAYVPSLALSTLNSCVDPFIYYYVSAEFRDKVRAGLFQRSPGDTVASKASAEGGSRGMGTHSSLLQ

Glut1 = Glut1 (Homo sapiens, UniProt P11166); conditions: cited from earlier work
Sequence of Glut1 (P11166 whole entry, species assumed): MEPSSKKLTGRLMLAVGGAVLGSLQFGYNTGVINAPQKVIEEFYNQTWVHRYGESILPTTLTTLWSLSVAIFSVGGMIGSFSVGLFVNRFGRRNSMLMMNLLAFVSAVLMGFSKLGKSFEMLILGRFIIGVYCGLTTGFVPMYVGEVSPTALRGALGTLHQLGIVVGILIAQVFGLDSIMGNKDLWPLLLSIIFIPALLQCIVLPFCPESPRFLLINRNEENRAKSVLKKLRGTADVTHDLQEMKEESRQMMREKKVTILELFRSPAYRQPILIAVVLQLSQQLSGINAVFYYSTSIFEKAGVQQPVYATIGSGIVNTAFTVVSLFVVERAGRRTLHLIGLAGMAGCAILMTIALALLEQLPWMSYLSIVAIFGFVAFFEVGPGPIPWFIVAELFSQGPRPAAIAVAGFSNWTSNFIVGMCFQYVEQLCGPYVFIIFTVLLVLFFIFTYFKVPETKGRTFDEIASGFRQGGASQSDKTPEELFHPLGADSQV

[5] = tested on: KP4, Panc1, Miapaca2 and 8988T (mesenchymal) vs Panc0403, Panc0504 and 8988S (epithelial) cancer cell lines; test: Cell growth by cell-titer-glo assay, mesenchymal vs epithelial cancer cell lines; type: cell-based; conditions: FIG. 8
Experimental: Validation studies were performed for two mesenchymal selective dependencies.

carcinoma cell lines [6] = test: Correlation of EMT signatures with PRISM compound AUCs; conditions: PRISM drug testing cohort
Text: (§1) FIG. 2A-2B—Investigation of the EMT signature and drug sensitivity data. FIG. 2A illustrates the top and bottom correlations between the PRISM compound AUCs (measure of drug sensitivity with a higher value indicating resistance) across three independent EMT down (FIG. 2A) and up (FIG. 2A continued) signatures (Byers, Groger, and Taube). FIG. 2B illustrates the top and bottom correlations between the CTD^2 drug testing cohort compound AUCs with the down (FIG. 2B) and up (FIG. 2B continued) EMT signatures (Byers, Groger, and Taube).
(§2) Applicants analyzed correlations between the EMT signatures and drug sensitivities (FIG. 2).
(§3) Data Curation. All analyses were performed using publicly available data downloaded from the Dependency Map web portal, corresponding to the 22Q2 release. Drug testing data was from the 19Q4 release of PRISM and the most recent release (2015) of CTD ([…]). EMT gene sets were taken from the supplementals of the Byers (2013), Groger (2012), and Taube (2010) EMT related publications. Gene sets were broken down into up (mesenchymal) and down (epithelial) sub-gene sets. If up or down is not labeled in a figure, the composite gene set (union of the up and down lists) was used for scoring. […]
(§4) Computational Methods. […] EMT scores were generated using the GSVA package (v1.38.2) and Pearson correlations were calculated using the base cor function. […]

[7] = tested on: tumor cells having a mesenchymal state; test: EMT signature and drug sensitivity data (PRISM and CTD^2, FIG. 2); conditions: mesenchymal vs epithelial state
Experimental: Data Curation. All analyses were performed using publicly available data downloaded from the Dependency Map web portal, corresponding to the 22Q2 release. Drug testing data was from the 19Q4 release of PRISM and the most recent release (2015) of CTD (Gröger, C. J., et al., 2012). EMT gene sets were taken from the supplementals of the Byers (2013), Groger (2012), and Taube (2010) EMT related publications. Gene sets were broken down into up (mesenchymal) and down (epithelial) sub-gene sets. If up or down is not labeled in a figure, the composite gene set (union of the up and down lists) was used for scoring. Only carcinoma coded cell lines were used in analyses. These carcinoma lines were then subset further, when indicated, based on KRAS mutation or pancreas lineage.
Computational Methods. Analyses were performed using the statistical programming language R (v4.0.3, macOS 12.5.1, platform: x86_64-apple-darwin17.0 (64-bit)). EMT scores were generated using the GSVA package (v1.38.2) and Pearson correlations were calculated using the base cor function. All plots were generated using ggplot2 (v3.3.6). Data manipulation was performed using the dplyr (v1.0.8) and reshape2 (v.1.4.4) packages.

Survivin promoter = conditions: HeLa-SURP-luc and CHO-SV40-luc cells; read-out: IC50, inhibition of Survivin promoter activity; cited from earlier work
SV40 promoter = conditions: cited from earlier work
carcinoma cell lines [8] = test: Correlation of EMT signatures with CTD^2 compound AUCs; conditions: CTD^2 drug testing cohort
Text: as §1, §2, §3, §4

Which results are given for `OCCNCCCOc1cccc(Cl)c1Cl` [2,3-DCPE, 2-[3-(2,3-dichlorophenoxy)propylamino]ethanol;hydrochloride]?
IC50 [1]: 890 to 2690 nM; IC50 (normal human fibroblasts): 12600 nM

With `CN(C)C(=O)n1nnnc1Cc1ccc(-c2ccccc2)cc1` [LY2183240, N,N-dimethyl-5-[(4-biphenyl)methyl]tetrazole-1-carboxamide] as the compound, how does the IC50 (anandamide uptake; read-out: IC50, anandamide uptake) read?
The IC50 was 270000 nM.

What about the Ki (anandamide uptake; read-out: Ki, anandamide uptake) of the same compound?
Its Ki is 540000 nM.

And the “ED50, increase of anandamide levels” value (anandamide levels)?
Its value is 1.37 mg/kg.

Which GI50 (variety of cell types) does the source give for `CC[C@H]1/C=C/C=C/C[C@@H](C)[C@H](O)[C@@](C)(O)C(=O)[C@@H](C)[C@H](O)[C@@H](C)C(=O)[C@@H](C)[C@H](O)[C@@H](C)/C=C/C(=O)O[C@@H]2[C@H](C)[C@H](CC1)O[C@]1(CC[C@H](C)[C@H](C[C@@H](C)O)O1)[C@H]2C` [Oligomycin A, (1R,4E,5′S,6S,6′S,7R,8S,10R,11R,12S,14R,15S,16R,18E,20E,22R,25S,27R,28S,29R)-22-ethyl-7,11,14,15-tetrahydroxy-6′-[(2R)-2-hydroxypropyl]-5′,6,8,10,12,14,16,28,29-nonamethyl-3′,4′,5′,6′-tetrahydro-3H,9H,13H-spiro[2,26-dioxabicyclo[23.3.1]nonacosa-4,18,20-triene-27,2′-pyran]-3,9,13-trione] here?
The GI50 was 270 nM.

And the “solubility in water and other biocompatible solvents” value [2]?
The value was “poor solubility”.

For `O=C(CCc1ccc(O)cc1)c1c(O)cc(O)cc1O` [Phloretin, 3-(4-hydroxyphenyl)-1-(2,4,6-trihydroxyphenyl)propan-1-one], which IC50 (MCT1) is on record?
The IC50 was 28000 nM.

And the IC50 (MCT2)?
The IC50 was 14000 nM.

What about the Ki [3] of the same compound?
The Ki was 86000 nM.

What does the source list for `O=C(Nc1ccc([N+](=O)[O-])cc1O)Nc1ccccc1Br` [SB 225002, 1-(2-bromophenyl)-3-(2-hydroxy-4-nitrophenyl)urea]?
IC50 (neutrophil chemotaxis): 20 nM; IC50 (neutrophil margination): 30 nM

Which IC50 [4] does the source give for `CC(C)c1ccc(Cn2ccc3c4c(N)nc(NC5CC5)nc4ccc32)cc1` [SCH 79797, 3-N-cyclopropyl-7-[(4-propan-2-ylphenyl)methyl]pyrrolo[3,2-f]quinazoline-1,3-diamine] here?
The IC50 was 70 nM.

What about the IC50 (platelet aggregation; inducer haTRAP, read-out: IC50, platelet aggregation induced by haTRAP) of the same compound?
The IC50 was 300 nM.

What about the IC50 (platelet aggregation; inducer α-thrombin, read-out: IC50, platelet aggregation induced by α-thrombin) of the same compound?
Its IC50 is 3000 nM.

What about the “activity against PAR2” value (PAR2) of the same compound?
Its value is “no activity”.

And the “activity against PAR4” value (PAR4)?
The value was “no activity”.

Which IC50 (Glut1) does the source give for `CC(C)(C)c1ccc(S(=O)(=O)NCc2ccc(C(=O)Nc3cccnc3)cc2)cc1` [STF-31, 4-[[[[4-(1,1-dimethylethyl)phenyl]sulfonyl]amino]methyl]-N-3-pyridinyl-benzamide] here?
The IC50 was about 1000 nM.

With `COCCn1c2c([n+](Cc3cnccn3)c1C)C(=O)c1ccccc1C2=O` [YM-155, 1-(2-methoxyethyl)-2-methyl-3-(pyrazin-2-ylmethyl)benzo[f]benzimidazol-3-ium-4,9-dione;bromide] as the compound, how does the “selectivity of growth inhibition, mesenchymal vs epithelial cancer cells” value [5] read?
Its value is “selective for inhibiting growth of mesenchymal cancer cells; also recorded: selectively targeted cancer cells that have undergone an epithelial-to-mesenchymal transition”.

And the “correlation of compound AUC with composite EMT signatures” value (carcinoma cell lines [6])?
Its value is “top positively correlated compound”.

And the “selective efficacy / lethality in the mesenchymal cell state” value [7]?
Its value is “potent selectivity against the mesenchymal cell state”.

And the IC50 (Survivin promoter)?
The IC50 was 0.54 nM.

And the “inhibition of SV40 promoter activity” value (SV40 promoter)?
The value was “does not significantly inhibit”.

With `O=C(Nc1ccc([N+](=O)[O-])cc1Cl)c1cc(Cl)ccc1O` [niclosamide, 5-chloro-N-(2-chloro-4-nitrophenyl)-2-hydroxybenzamide] as the compound, how does the “correlation of compound AUC with composite EMT signatures” value (carcinoma cell lines [8]) read?
The value was “top positively correlated compound”.

What about the “selective efficacy / lethality in the mesenchymal cell state” value [7] of the same compound?
Its value is “selective efficacy in mesenchymal cancer cells”.
